From patent publication US20240294531A1, “COVALENT HETEROCYCLES AND USES THEREOF” (Kumquat Biosciences Inc., priority 2022, published 2024) come the findings set out here.

The target in experiment [1] is BTK wildtype protein (Homo sapiens (Human), UniProt Q06187). The experiment is described as follows: BTK wildtype HTRF displacement assay. In kind it is binding. As to conditions: 1-hour incubation; read-out: BTK (wt) IC50. In outline:
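Tracer-displacement HTRF format: compound and tracer 239 compete at the BTK active site, detected via anti-GST-Tb on GST-tagged full-length enzyme. One-hour room-temperature incubation; compounds dosed at six four-fold steps down from 5 μM. Percent inhibition versus DMSO gives IC50 by constrained four-parameter logistic fit.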
(TR-FRET usually uses a lanthanide donor and a delayed reading to cut background.)

The target in experiment [2] is BTK C481S protein (Homo sapiens (Human), UniProt Q06187, C481S). The experiment can be described thus: BTK C481S HTRF displacement assay. In kind it is binding. As to conditions: 1-hour incubation. The essentials: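 Tracer displacement read by HTRF after 1 hour at room temperature: GST-BTK C481S 2-659, 50 nM tracer 239 (Kd 54 nM), anti-GST antibody, compound in six four-fold doses from 5 μM. Percent inhibition versus DMSO fitted (bottom 0, top 100) for IC50, converted to KI via Cheng-Prusoff.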

The structures appear in SMILES notation. Where only a bound is given, the exact number is not on record here.

Chain of BTK C481S protein (Q06187 2-659 C481S): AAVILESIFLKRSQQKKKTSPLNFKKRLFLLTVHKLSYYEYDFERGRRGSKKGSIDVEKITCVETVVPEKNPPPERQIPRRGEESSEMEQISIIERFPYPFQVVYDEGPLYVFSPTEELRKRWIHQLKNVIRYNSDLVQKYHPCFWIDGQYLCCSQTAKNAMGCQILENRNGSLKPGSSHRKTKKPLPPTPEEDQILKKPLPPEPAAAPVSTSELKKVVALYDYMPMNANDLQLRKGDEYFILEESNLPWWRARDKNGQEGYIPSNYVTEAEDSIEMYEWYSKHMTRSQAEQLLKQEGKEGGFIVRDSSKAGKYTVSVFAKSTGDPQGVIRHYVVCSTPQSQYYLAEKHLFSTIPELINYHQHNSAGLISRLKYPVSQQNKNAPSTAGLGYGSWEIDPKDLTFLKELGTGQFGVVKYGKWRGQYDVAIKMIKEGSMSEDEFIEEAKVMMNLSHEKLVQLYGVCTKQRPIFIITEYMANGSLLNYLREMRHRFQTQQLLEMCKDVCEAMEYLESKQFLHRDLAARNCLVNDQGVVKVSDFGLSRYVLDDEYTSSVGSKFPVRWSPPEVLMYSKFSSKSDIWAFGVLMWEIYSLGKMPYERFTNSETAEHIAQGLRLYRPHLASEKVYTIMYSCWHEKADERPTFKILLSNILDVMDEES
Chain of BTK wildtype protein (Q06187 2-659): as the sequence (Q06187 2-659 C481S) above, with S480C counted along it

On to `COc1ccc(F)cc1C(=O)NCc1ccc(-c2nn(CC3CCC(O)CN3C(=O)n3cncn3)c3ncnc(N)c23)cc1` (stereo not shown) [Compound 246, N-(4-(4-amino-1-((5-hydroxy-1-(1H-1,2,4-triazole-1-carbonyl)piperidin-2-yl)methyl)-1H-pyrazolo[3,4-d]pyrimidin-3-yl)benzyl)-5-fluoro-2-methoxybenzamide], for which the IC50 in experiment [1] and in experiment [2] was not above 1000 nM each time.
Turning to `CN(C(=O)n1cncn1)[C@@H]1CCC[C@@H](n2nc(-c3ccc(Oc4ccccc4)cc3)c(C(N)=O)c2N)C1` [Compound 247, N-((1R,3R)-3-(5-amino-4-carbamoyl-3-(4-phenoxyphenyl)-1H-pyrazol-1-yl)cyclohexyl)-N-methyl-1H-1,2,4-triazole-1-carboxamide], the IC50 in experiment [1] and in experiment [2] was not above 1000 nM throughout.
Take `COc1ccc(F)cc1C(=O)NCc1ccc(-c2nn(C[C@@H]3CCCN3C(=O)n3cncn3)c3ncnc(N)c23)cc1` [Compound 251, (S)-N-(4-(1-((1-(1H-1,2,4-triazole-1-carbonyl)pyrrolidin-2-yl)methyl)-4-amino-1H-pyrazolo[3,4-d]pyrimidin-3-yl)benzyl)-5-fluoro-2-methoxybenzamide]: the half-inhibitory concentration (IC50) in experiment [1] and in experiment [2] was not above 1000 nM each time.
In the case of `CN(C(=O)n1cncn1)[C@H]1CCCC[C@H](n2nc(-c3ccc(Oc4ccccc4)cc3)c(C(N)=O)c2N)C1` [Compound 252, N-((1S,3S)-3-(5-amino-4-carbamoyl-3-(4-phenoxyphenyl)-1H-pyrazol-1-yl)cycloheptyl)-N-methyl-1H-1,2,4-triazole-1-carboxamide], the concentration for half-maximal inhibition (IC50) in experiment [1] and in experiment [2] was not above 1000 nM each time.
Consider `COc1ccc(F)cc1C(=O)NCc1ccc(-c2nn(C(CC(F)F)CN(C)C(=O)n3cncn3)c3ncnc(N)c23)cc1` (stereo not shown) [Compound 257, N-(2-(4-amino-3-(4-((5-fluoro-2-methoxybenzamido)methyl)phenyl)-1H-pyrazolo[3,4-d]pyrimidin-1-yl)-4,4-difluorobutyl)-N-methyl-1H-1,2,4-triazole-1-carboxamide], for which the concentration for half-maximal inhibition (IC50) in experiment [1] and in experiment [2] was more than 1000 nM each time.
For the molecule `COc1ccc(C)cc1C(=O)NCc1ccc(-c2nn(C3CCC(N(C)C(=O)n4cncn4)CC3)c3ncnc(N)c23)cc1` (stereo not shown) [Compound 258, N-(4-(4-amino-3-(4-((2-methoxy-5-methylbenzamido)methyl)phenyl)-1H-pyrazolo[3,4-d]pyrimidin-1-yl)cyclohexyl)-N-methyl-1H-1,2,4-triazole-1-carboxamide], the IC50 in experiment [1] and in experiment [2] was not above 1000 nM throughout.
As for `Cc1[nH]c2c(C(N)=O)cc(F)c(N3CCCC(N(C)C(=O)n4cncn4)C3)c2c1C` (stereo not shown) [Compound 262, 5-fluoro-2,3-dimethyl-4-(3-(N-methyl-1H-1,2,4-triazole-1-carboxamido)piperidin-1-yl)-1H-indole-7-carboxamide], the IC50 in experiment [1] and in experiment [2] was not above 1000 nM in each case.
As for `CN(C(=O)n1cncn1)C1CCCCC1n1nc(-c2ccc(Oc3ccccc3)cc2)c2c(N)ncnc21` (stereo not shown) [Compound 263, N-(2-(4-amino-3-(4-phenoxyphenyl)-1H-pyrazolo[3,4-d]pyrimidin-1-yl)cyclohexyl)-N-methyl-1H-1,2,4-triazole-1-carboxamide], the IC50 in experiment [1] and in experiment [2] was not above 1000 nM in each case.
On to `NC(=O)c1c(-c2ccc(Oc3ccccc3)cc2)nn2c1NCC[C@H]2[C@H]1CCCCN1C(=O)n1cncn1` [Compound 266, (S)-7-((R)-1-(1H-1,2,4-triazole-1-carbonyl)piperidin-2-yl)-2-(4-phenoxyphenyl)-4,5,6,7-tetrahydropyrazolo[1,5-a] pyrimidine-3-carboxamide], for which the IC50 in experiment [1] and in experiment [2] was not above 1000 nM throughout.
Consider `Nc1ncnc2c1c(-c1ccc(Oc3ccccc3)cc1)nn2CC1CCCCN1C(=O)n1cncn1` (stereo not shown) [Compound 267, (2-((4-amino-3-(4-phenoxyphenyl)-1H-pyrazolo[3,4-d]pyrimidin-1-yl)methyl)piperidin-1-yl)(1H-1,2,4-triazol-1-yl)methanone], for which the half-inhibitory concentration (IC50) in experiment [1] and in experiment [2] was not above 1000 nM in each case.
`COc1ccc(F)cc1C(=O)NCc1ccc(-c2nn(C(Cc3ccccn3)CN(C)C(=O)n3cncn3)c3ncnc(N)c23)cc1` (stereo not shown) [Compound 268, N-(2-(4-amino-3-(4-((5-fluoro-2-methoxybenzamido)methyl)phenyl)-1H-pyrazolo[3,4-d]pyrimidin-1-yl)-3-(pyridin-2-yl)propyl)-N-methyl-1H-1,2,4-triazole-1-carboxamide]: the IC50 in experiment [1] and in experiment [2] was more than 1000 nM each time.
Turning to `COc1ccc(F)cc1C(=O)NCc1ccc(-c2nn([C@H]3CC[C@@H](N(C)C(=O)n4cncn4)C3)c3ncnc(N)c23)cc1` [Compound 269, N-((1R,3S)-3-(4-amino-3-(4-((5-fluoro-2-methoxybenzamido)methyl)phenyl)-1H-pyrazolo [3,4-d]pyrimidin-1-yl)cyclopentyl)-N-methyl-1H-1,2,4-triazole-1-carboxamide], the half-maximal inhibitory concentration (IC50) in experiment [1] and in experiment [2] was not above 1000 nM in each case.
As to `COc1ccc(F)cc1C(=O)NCc1ccc(-c2nn(CC3CN(C(=O)n4cncn4)C3)c(N)c2C(N)=O)cc1` [Compound 270, 1-((1-(1H-1,2,4-triazole-1-carbonyl)azetidin-3-yl)methyl)-5-amino-3-(4-((5-fluoro-2-methoxybenzamido)methyl)phenyl)-1H-pyrazole-4-carboxamide], the IC50 in experiment [1] and in experiment [2] was not above 1000 nM each time.
For the molecule `COc1ccc(F)cc1C(=O)NCc1ccc(-c2nn(CC3C(C)CCCN3C(=O)n3cncn3)c3ncnc(N)c23)cc1` (stereo not shown) [Compound 271, N-(4-(4-amino-1-((3-methyl-1-(1H-1,2,4-triazole-1-carbonyl)piperidin-2-yl)methyl)-1H-pyrazolo[3,4-d]pyrimidin-3-yl)benzyl)-5-fluoro-2-methoxybenzamide], the half-inhibitory concentration (IC50) in experiment [1] and in experiment [2] was more than 1000 nM in each case.
As for `CN(C(=O)n1cncn1)C1CCC2C(CNc3c(C(N)=O)c(-c4ccc(Oc5ccccc5)cc4)nn32)C1` (stereo not shown) [Compound 272, 7-(N-methyl-1H-1,2,4-triazole-1-carboxamido)-2-(4-phenoxyphenyl)-4,5,5a,6,7,8,9,9a-octahydropyrazolo [1,5-a]quinazoline-3-carboxamide], the half-inhibitory concentration (IC50) in experiment [1] and in experiment [2] was not above 1000 nM throughout.
Take `COc1ccc(C)cc1C(=O)NCc1ccc(-c2nn(C3CCC(N(C)C(=O)n4cnnn4)C3)c3ncnc(N)c23)cc1` (stereo not shown) [Compound 273, N-(3-(4-amino-3-(4-((2-methoxy-5-methylbenzamido)methyl)phenyl)-1H-pyrazolo[3,4-d]pyrimidin-1-yl)cyclopentyl)-N-methyl-1H-tetrazole-1-carboxamide]: the 50% inhibitory concentration (IC50) in experiment [1] and in experiment [2] was not above 1000 nM throughout.
With `COc1ccc(F)cc1C(=O)NCc1ccc(-c2nn(C[C@@H]3CCCCN3C(=O)n3cncn3)c3ncnc(N)c23)cc1` [Compound 274, (S)-N-(4-(1-((1-(1H-1,2,4-triazole-1-carbonyl)piperidin-2-yl)methyl)-4-amino-1H-pyrazolo[3,4-d]pyrimidin-3-yl)benzyl)-5-fluoro-2-methoxybenzamide], the half-maximal inhibitory concentration (IC50) in experiment [1] and in experiment [2] was not above 1000 nM each time.
As for `COc1ccc(C)cc1C(=O)NCc1ccc(-c2nn(C3CCC(N(C)C(=O)n4cncn4)C3)c3ncnc(N)c23)cc1` (stereo not shown) [Compound 275, N-(3-(4-amino-3-(4-((2-methoxy-5-methylbenzamido)methyl)phenyl)-1H-pyrazolo[3,4-d]pyrimidin-1-yl)cyclopentyl)-N-methyl-1H-1,2,4-triazole-1-carboxamide], the IC50 in experiment [1] and in experiment [2] was not above 1000 nM throughout.
In the case of `COc1ccc(F)cc1C(=O)NCc1ccc(-c2nn(-c3cc(N(C)C(=O)n4cncn4)ccc3C)c3ncnc(N)c23)cc1` [Compound 276, N-(3-(4-amino-3-(4-((5-fluoro-2-methoxybenzamido)methyl)phenyl)-1H-pyrazolo[3,4-d]pyrimidin-1-yl)-4-methylphenyl)-N-methyl-1H-1,2,4-triazole-1-carboxamide], the results for the IC50 in experiment [1] and in experiment [2] were not above 1000 nM and more than 1000 nM, respectively.
In the same order, the values of `NC(=O)c1nn2c(C3CCCCN3C(=O)n3cncn3)ccnc2c1-c1ccc(Oc2ccccc2)cc1` (stereo not shown) [Compound 277, 7-(1-(1H-1,2,4-triazole-1-carbonyl)piperidin-2-yl)-3-(4-phenoxy-phenyl)pyrazolo[1,5-a]pyrimidine-2-carboxamide] are more than 1000 nM and more than 1000 nM.
Take `COc1ccc(F)cc1C(=O)NCc1ccc(-c2nn(C(C)CC3CCCN3C(=O)n3cncn3)c3ncnc(N)c23)cc1` (stereo not shown) [Compound 279, N-(4-(1-(1-(1-(1H-1,2,4-triazole-1-carbonyl)pyrrolidin-2-yl)propan-2-yl)-4-amino-1H-pyrazolo[3,4-d]pyrimidin-3-yl)benzyl)-5-fluoro-2-methoxybenzamide]: the half-maximal inhibitory concentration (IC50) in experiment [1] and in experiment [2] was more than 1000 nM each time.
`NC(=O)c1c(-c2ccc(Oc3ccccc3)cc2)nn2c1NCCC2[C@@H]1CCCN1C(=O)n1cncn1` (stereo partly drawn) [Compound 280, 7-((S)-1-(1H-1,2,4-triazole-1-carbonyl)pyrrolidin-2-yl)-2-(4-phenoxyphenyl)-4,5,6,7-tetrahydropyrazolo[1,5-a] pyrimidine-3-carboxamide]: the figures for the IC50 in experiment [1] and in experiment [2] were more than 1000 nM and not above 1000 nM, respectively.
As for `COc1ccc(F)cc1C(=O)NCc1ccc(-c2nn(C(Cc3ccncc3)CN(C)C(=O)n3cncn3)c3ncnc(N)c23)cc1` (stereo not shown) [Compound 281], the IC50 in experiment [1] and in experiment [2] was more than 1000 nM in each case.
